Values of other authors as cited in patent US6947791B2, “Method and apparatus for electrically assisted topical delivery of agents for cosmetic applications” (Genetronics, Inc., priority 1998, dated 2005).
Like-named read-outs stand apart in the source and are kept apart here.

Tested on: human dermal fibroblasts
Settings: for MTT50 (amount required to kill 50% of the cells in cell culture): pH 7.5

O=C1O[C@H]([C@@H](O)CO)C([O-])=C1OP(=O)([O-])[O-].O=C1O[C@H]([C@@H](O)CO)C([O-])=C1OP(=O)([O-])[O-].[Mg+2].[Mg+2].[Mg+2] [MAP]
MTT50 (amount required to kill 50% of the cells in cell culture) (fibroblasts from person one): 75,000 ppm | MTT50 (amount required to kill 50% of the cells in cell culture) (fibroblasts from person two): higher than 100,000 ppm | cytotoxicity compared to L-ascorbic acid (fibroblasts of all ages): significantly lower cytotoxicity
